Data as given in ChEMBL document CHEMBL5444388, “Affinity Phenotypic Cellular Literature for EUbOPEN Chemogenomic Library” (2024).

Assays:
Assay type in all cases: functional, cell-based
Set-up in all cases: recommended concentration 100 nM
[1] = molecular target: Centromere-associated protein E (Homo sapiens) (UniProt Q02224); experiment: Affinity Phenotypic Cellular interaction: (Cell-growth inhibition assays (growth inhibitory effect colon cancer cell line RXF393)) EUB0000734a CENPE; settings: RXF 393, Affinity Phenotypic Cellular Source Knowledge https://pubmed.ncbi.nlm.nih.gov/20167803/
[2] = molecular target: Centromere-associated protein E (Homo sapiens) (UniProt Q02224); experiment: Affinity Phenotypic Cellular interaction: (Cell-growth inhibition assays (growth inhibitory effect colon cancer cell line SW-872)) EUB0000734a CENPE; settings: SW872, Affinity Phenotypic Cellular Source Knowledge https://pubmed.ncbi.nlm.nih.gov/20167803/
[3] = molecular target: Centromere-associated protein E (Homo sapiens) (UniProt Q02224); experiment: Affinity Phenotypic Cellular interaction: (Cell-growth inhibition assays (growth inhibitory effect colon cancer cell line Caki-2)) EUB0000734a CENPE; settings: Affinity Phenotypic Cellular Source Knowledge https://pubmed.ncbi.nlm.nih.gov/20167803/
[4] = molecular target: Centromere-associated protein E (Homo sapiens) (UniProt Q02224); experiment: Affinity Phenotypic Cellular interaction: (Cell-growth inhibition assays (growth inhibitory effect colon cancer cell line RPMI6666)) EUB0000734a CENPE; settings: RPMI-6666, Affinity Phenotypic Cellular Source Knowledge https://pubmed.ncbi.nlm.nih.gov/20167803/
[5] = molecular target: Centromere-associated protein E (Homo sapiens) (UniProt Q02224); experiment: Affinity Phenotypic Cellular interaction: (Cell-growth inhibition assays (growth inhibitory effect colon cancer cell line SW1463)) EUB0000734a CENPE; settings: Affinity Phenotypic Cellular Source Knowledge https://pubmed.ncbi.nlm.nih.gov/20167803/
[6] = molecular target: Centromere-associated protein E (Homo sapiens) (UniProt Q02224); experiment: Affinity Phenotypic Cellular interaction: (Cell-growth inhibition assays (growth inhibitory effect colon cancer cell line OVCAR-3)) EUB0000734a CENPE; settings: Affinity Phenotypic Cellular Source Knowledge https://pubmed.ncbi.nlm.nih.gov/20167803/
[7] = molecular target: Centromere-associated protein E (Homo sapiens) (UniProt Q02224); experiment: Affinity Phenotypic Cellular interaction: (Cell-growth inhibition assays (growth inhibitory effect colon cancer cell line SNU-398)) EUB0000734a CENPE; settings: Affinity Phenotypic Cellular Source Knowledge https://pubmed.ncbi.nlm.nih.gov/20167803/
[8] = molecular target: Centromere-associated protein E (Homo sapiens) (UniProt Q02224); experiment: Affinity Phenotypic Cellular interaction: (Cell-growth inhibition assays (growth inhibitory effect thyroid cancer cell line SW579)) EUB0000734a CENPE; settings: Affinity Phenotypic Cellular Source Knowledge https://pubmed.ncbi.nlm.nih.gov/20167803/
[9] = molecular target: Centromere-associated protein E (Homo sapiens) (UniProt Q02224); experiment: Affinity Phenotypic Cellular interaction: (Cell-growth inhibition assays (growth inhibitory effect colon cancer cell line C3A)) EUB0000734a CENPE; settings: Affinity Phenotypic Cellular Source Knowledge https://pubmed.ncbi.nlm.nih.gov/20167803/
[10] = molecular target: Centromere-associated protein E (Homo sapiens) (UniProt Q02224); experiment: Affinity Phenotypic Cellular interaction: (Cell-growth inhibition assays (growth inhibitory effect colon cancer cell line COLO-320DM)) EUB0000734a CENPE; settings: Affinity Phenotypic Cellular Source Knowledge https://pubmed.ncbi.nlm.nih.gov/20167803/
[11] = molecular target: Centromere-associated protein E (Homo sapiens) (UniProt Q02224); experiment: Affinity Phenotypic Cellular interaction: (Cell-growth inhibition assays (growth inhibitory effect colon cancer cell line SF-539)) EUB0000734a CENPE; settings: Affinity Phenotypic Cellular Source Knowledge https://pubmed.ncbi.nlm.nih.gov/20167803/
[12] = molecular target: Centromere-associated protein E (Homo sapiens) (UniProt Q02224); experiment: Affinity Phenotypic Cellular interaction: (Cell-growth inhibition assays (growth inhibitory effect colon cancer cell line A2780)) EUB0000734a CENPE; settings: Affinity Phenotypic Cellular Source Knowledge https://pubmed.ncbi.nlm.nih.gov/20167803/
[13] = molecular target: Centromere-associated protein E (Homo sapiens) (UniProt Q02224); experiment: Affinity Phenotypic Cellular interaction: (Cell-growth inhibition assays (growth inhibitory effect colon cancer cell line SW756)) EUB0000734a CENPE; settings: Affinity Phenotypic Cellular Source Knowledge https://pubmed.ncbi.nlm.nih.gov/20167803/
[14] = molecular target: Centromere-associated protein E (Homo sapiens) (UniProt Q02224); experiment: Affinity Phenotypic Cellular interaction: (Cell-growth inhibition assays (growth inhibitory effect colon cancer cell line BHT-101)) EUB0000734a CENPE; settings: Affinity Phenotypic Cellular Source Knowledge https://pubmed.ncbi.nlm.nih.gov/20167803/
[15] = molecular target: Centromere-associated protein E (Homo sapiens) (UniProt Q02224); experiment: Affinity Phenotypic Cellular interaction: (Cell-growth inhibition assays (growth inhibitory effect colon cancer cell line TK-10)) EUB0000734a CENPE; settings: Affinity Phenotypic Cellular Source Knowledge https://pubmed.ncbi.nlm.nih.gov/20167803/
[16] = molecular target: Centromere-associated protein E (Homo sapiens) (UniProt Q02224); experiment: Affinity Phenotypic Cellular interaction: (Cell-growth inhibition assays (growth inhibitory effect colon cancer cell line COLO 201)) EUB0000734a CENPE; settings: Affinity Phenotypic Cellular Source Knowledge https://pubmed.ncbi.nlm.nih.gov/20167803/
[17] = molecular target: Centromere-associated protein E (Homo sapiens) (UniProt Q02224); experiment: Affinity Phenotypic Cellular interaction: (Cell-growth inhibition assays (growth inhibitory effect colon cancer cell line Detroit562)) EUB0000734a CENPE; settings: Detroit 562, Affinity Phenotypic Cellular Source Knowledge https://pubmed.ncbi.nlm.nih.gov/20167803/
[18] = molecular target: Centromere-associated protein E (Homo sapiens) (UniProt Q02224); experiment: Affinity Phenotypic Cellular interaction: (Cell-growth inhibition assays (growth inhibitory effect colon cancer cell line OVCAR-5)) EUB0000734a CENPE; settings: Affinity Phenotypic Cellular Source Knowledge https://pubmed.ncbi.nlm.nih.gov/20167803/
[19] = molecular target: Centromere-associated protein E (Homo sapiens) (UniProt Q02224); experiment: Affinity Phenotypic Cellular interaction: (Cell-growth inhibition assays (growth inhibitory effect colon cancer cell line DLD-1)) EUB0000734a CENPE; settings: Affinity Phenotypic Cellular Source Knowledge https://pubmed.ncbi.nlm.nih.gov/20167803/
[20] = molecular target: Centromere-associated protein E (Homo sapiens) (UniProt Q02224); experiment: Affinity Phenotypic Cellular interaction: (Cell-growth inhibition assays (growth inhibitory effect colon cancer cell line YAPC)) EUB0000734a CENPE; settings: Affinity Phenotypic Cellular Source Knowledge https://pubmed.ncbi.nlm.nih.gov/20167803/
[21] = molecular target: Centromere-associated protein E (Homo sapiens) (UniProt Q02224); experiment: Affinity Phenotypic Cellular interaction: (Cell-growth inhibition assays (growth inhibitory effect colon cancer cell line SCC-25)) EUB0000734a CENPE; settings: Affinity Phenotypic Cellular Source Knowledge https://pubmed.ncbi.nlm.nih.gov/20167803/
[22] = molecular target: Centromere-associated protein E (Homo sapiens) (UniProt Q02224); experiment: Affinity Phenotypic Cellular interaction: (Cell-growth inhibition assays (growth inhibitory effect colon cancer cell line BV-173)) EUB0000734a CENPE; settings: Affinity Phenotypic Cellular Source Knowledge https://pubmed.ncbi.nlm.nih.gov/20167803/
[23] = molecular target: Centromere-associated protein E (Homo sapiens) (UniProt Q02224); experiment: Affinity Phenotypic Cellular interaction: (Cell-growth inhibition assays (growth inhibitory effect colon cancer cell line K-562)) EUB0000734a CENPE; settings: K562, Affinity Phenotypic Cellular Source Knowledge https://pubmed.ncbi.nlm.nih.gov/20167803/
[24] = molecular target: Centromere-associated protein E (Homo sapiens) (UniProt Q02224); experiment: Affinity Phenotypic Cellular interaction: (Cell-growth inhibition assays (growth inhibitory effect colon cancer cell line NCI/ADR-RES)) EUB0000734a CENPE; settings: Affinity Phenotypic Cellular Source Knowledge https://pubmed.ncbi.nlm.nih.gov/20167803/

Chain of Centromere-associated protein E (Homo sapiens) (Q02224 whole entry): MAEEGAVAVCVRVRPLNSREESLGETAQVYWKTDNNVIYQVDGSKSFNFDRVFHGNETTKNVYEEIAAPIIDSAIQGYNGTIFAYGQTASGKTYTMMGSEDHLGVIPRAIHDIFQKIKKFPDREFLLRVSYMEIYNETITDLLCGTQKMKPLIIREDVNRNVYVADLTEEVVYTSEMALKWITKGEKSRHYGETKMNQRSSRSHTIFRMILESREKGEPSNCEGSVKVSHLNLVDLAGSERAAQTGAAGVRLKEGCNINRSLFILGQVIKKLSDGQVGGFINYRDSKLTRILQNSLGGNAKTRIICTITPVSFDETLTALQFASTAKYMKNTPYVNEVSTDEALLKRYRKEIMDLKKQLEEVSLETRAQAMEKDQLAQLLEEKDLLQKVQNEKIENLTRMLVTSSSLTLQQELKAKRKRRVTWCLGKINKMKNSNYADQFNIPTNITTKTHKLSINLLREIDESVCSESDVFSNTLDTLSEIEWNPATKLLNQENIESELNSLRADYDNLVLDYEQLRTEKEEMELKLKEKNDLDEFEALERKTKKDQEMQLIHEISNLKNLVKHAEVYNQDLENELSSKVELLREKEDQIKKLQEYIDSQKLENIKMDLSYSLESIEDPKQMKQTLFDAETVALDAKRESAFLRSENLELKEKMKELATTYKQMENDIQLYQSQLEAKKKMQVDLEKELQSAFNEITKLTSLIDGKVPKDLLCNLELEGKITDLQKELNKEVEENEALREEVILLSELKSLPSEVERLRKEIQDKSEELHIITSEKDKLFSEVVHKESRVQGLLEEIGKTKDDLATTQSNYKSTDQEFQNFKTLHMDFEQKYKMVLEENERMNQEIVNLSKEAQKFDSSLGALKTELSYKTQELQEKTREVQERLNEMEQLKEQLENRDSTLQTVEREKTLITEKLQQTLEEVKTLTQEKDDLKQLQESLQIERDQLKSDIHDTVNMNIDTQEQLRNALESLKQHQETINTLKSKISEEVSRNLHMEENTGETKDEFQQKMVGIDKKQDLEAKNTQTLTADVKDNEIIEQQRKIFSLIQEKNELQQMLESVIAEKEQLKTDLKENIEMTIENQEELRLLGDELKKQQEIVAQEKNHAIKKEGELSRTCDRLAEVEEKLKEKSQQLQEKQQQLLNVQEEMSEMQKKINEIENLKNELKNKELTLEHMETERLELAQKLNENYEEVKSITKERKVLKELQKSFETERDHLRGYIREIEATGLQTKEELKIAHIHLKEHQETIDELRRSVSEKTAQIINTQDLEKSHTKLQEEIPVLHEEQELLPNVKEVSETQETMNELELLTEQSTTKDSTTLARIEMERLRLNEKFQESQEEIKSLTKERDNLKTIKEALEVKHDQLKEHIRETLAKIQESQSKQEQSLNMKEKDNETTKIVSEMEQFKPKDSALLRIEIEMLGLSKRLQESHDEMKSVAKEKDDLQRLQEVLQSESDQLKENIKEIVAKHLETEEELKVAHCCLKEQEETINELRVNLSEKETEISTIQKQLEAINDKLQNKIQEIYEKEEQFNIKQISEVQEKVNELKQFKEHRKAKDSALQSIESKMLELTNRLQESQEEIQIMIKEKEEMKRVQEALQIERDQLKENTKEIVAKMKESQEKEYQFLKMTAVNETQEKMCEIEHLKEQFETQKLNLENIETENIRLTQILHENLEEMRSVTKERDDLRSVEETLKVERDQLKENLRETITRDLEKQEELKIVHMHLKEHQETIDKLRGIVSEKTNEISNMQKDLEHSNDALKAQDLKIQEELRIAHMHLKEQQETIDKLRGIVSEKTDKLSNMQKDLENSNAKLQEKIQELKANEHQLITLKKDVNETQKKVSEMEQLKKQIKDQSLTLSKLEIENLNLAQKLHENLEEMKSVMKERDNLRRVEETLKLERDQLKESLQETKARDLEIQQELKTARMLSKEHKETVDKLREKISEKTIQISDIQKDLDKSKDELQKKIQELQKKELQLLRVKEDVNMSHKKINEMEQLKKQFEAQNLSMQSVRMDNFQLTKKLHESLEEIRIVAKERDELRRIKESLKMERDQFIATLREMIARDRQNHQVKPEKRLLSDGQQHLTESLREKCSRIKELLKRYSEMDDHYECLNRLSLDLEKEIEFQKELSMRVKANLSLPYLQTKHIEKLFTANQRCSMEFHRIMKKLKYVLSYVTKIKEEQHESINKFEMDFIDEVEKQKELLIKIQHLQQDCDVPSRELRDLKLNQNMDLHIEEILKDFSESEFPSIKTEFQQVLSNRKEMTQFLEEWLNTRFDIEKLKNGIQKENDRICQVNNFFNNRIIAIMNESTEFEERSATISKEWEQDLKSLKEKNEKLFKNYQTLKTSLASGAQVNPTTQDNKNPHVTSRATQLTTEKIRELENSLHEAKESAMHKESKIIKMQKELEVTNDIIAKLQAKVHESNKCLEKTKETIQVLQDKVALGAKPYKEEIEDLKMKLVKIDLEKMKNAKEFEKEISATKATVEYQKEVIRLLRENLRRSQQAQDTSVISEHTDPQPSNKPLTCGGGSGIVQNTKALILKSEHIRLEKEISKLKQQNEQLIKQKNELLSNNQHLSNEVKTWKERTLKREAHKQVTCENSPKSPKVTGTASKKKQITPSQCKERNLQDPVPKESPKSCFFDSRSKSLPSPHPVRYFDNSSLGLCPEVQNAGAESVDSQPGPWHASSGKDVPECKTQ

GIC50 [1]: 32 nM
GIC50 [2]: 37 nM
GIC50 [3]: 25 nM
GIC50 [4]: 88 nM
GIC50 [5]: 31 nM
GIC50 [6]: 42 nM
GIC50 [7]: 27 nM
GIC50 [8]: 26 nM
GIC50 [9]: 54 nM
GIC50 [10]: 306 nM
GIC50 [11]: 28 nM
GIC50 [12]: 13 nM
GIC50 [13]: 35 nM
GIC50 [14]: 100 nM
GIC50 [15]: 49 nM
GIC50 [16]: 24 nM
GIC50 [17]: 35 nM
GIC50 [18]: 34 nM
GIC50 [19]: 60 nM
GIC50 [20]: 59 nM
GIC50 [21]: 23 nM
GIC50 [22]: 56 nM
GIC50 [23]: 25 nM
GIC50 [24]: 3.96 µM
Structure (SMILES): CC(C)Oc1ccc(C(=O)N[C@H](CNC(=O)CN(C)C)Cc2ccc(-c3cn4cccc([C@H](C)O)c4n3)cc2)cc1Cl
